This note sets out measurements from US20220280527A1, “TRACE AMINE ASSOCIATED RECEPTOR 1 AGONISTS AND PARTIAL AGONISTS FOR PAIN TREATMENT” (Purdue Pharma L.P., priority 2016, published 2022).

In one data set the target is T1, hTAAR1 (Homo sapiens, UniProt Q96RJ0).
T1 construct: expressed in transfected cells; host or cells: recombinant cells
T1 sequence (Q96RJ0 1-339): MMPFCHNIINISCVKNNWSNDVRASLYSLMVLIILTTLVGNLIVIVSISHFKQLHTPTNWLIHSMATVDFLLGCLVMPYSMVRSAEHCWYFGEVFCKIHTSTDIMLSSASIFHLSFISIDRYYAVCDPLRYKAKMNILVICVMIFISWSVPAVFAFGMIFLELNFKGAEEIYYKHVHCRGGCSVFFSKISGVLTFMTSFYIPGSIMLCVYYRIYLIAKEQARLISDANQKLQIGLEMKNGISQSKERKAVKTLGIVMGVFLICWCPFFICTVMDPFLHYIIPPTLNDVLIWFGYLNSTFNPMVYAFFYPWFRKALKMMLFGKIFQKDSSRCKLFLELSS
Briefly: hTAAR1 functional assay (cAMP). Format: cell-based. The following applies: for EC50: read-out: hTAAR1 EC50 (mean ± SEM (n)); for Emax: read-out: hTAAR1 Emax (mean ± SEM (n)). On the procedure:
EC50 and Erna, values are reported for these compounds in Table 1.
A GPCR cAMP Modulation Assay can be used to determine whether a compound can be considered an agonist or antagonist.
cAMP Hunter cell lines were expanded from freezer stocks according to standard procedures. Cells were seeded into white walled, 384-well microplates in a total volume of 20 μL and incubated at 37° C. prior to testing. cAMP modulation was determined using a DiscoverX HitHunter cAMP XS+assay.
To determine whether a compound would be considered an agonist, cells were incubated with a test compound to induce a response. Media was aspirated from cells and replaced with 15 μL, 2:1 HBSS/10mM Hepes: cAMP XS+Ab reagent. Sample stocks were diluted immediately to generate a 4X sample in assay buffer. 5 μL of the 4X sample was added to cells and incubated at room temperature or 37° C. for 30 or 60 minutes. Final assay vehicle concentration was 1%.
After appropriate compound incubation, assay signal was generated by incubation with […] cAMP XS+ED/CL lysis cocktail for one hour followed, which was followed with room temperature incubation with […] cAMP XS+EA reagent for three hours. Microplates were read following signal generation with a PerkinElmer Envision^Tm instrument for chemiluminescent signal detection.
CBIS data analysis suite (ChemInnovation, CA) was used to analyze compound activity. RLU stands for relative light units.
For Gs agonist mode assays, percent activity was calculated using the following formula: […]

Data set [1] deals with Sprague-Dawley rats. In words: Tail flick test (nociceptive pain). Format: in vivo, rat. The following applies: positive control, administered subcutaneously one hour prior to testing. (In general: In hot-plate and tail-flick tests a longer latency is read as antinociception.)
The subject of data set [2] is Sprague-Dawley rats. In words: SNL-induced mechanical hyperalgesia model (paw pressure test, PWT). Type of data set: in vivo, rat. To be noted: for minimum effective dose (MED): 1 hour prior to testing. On the procedure:
Surgery is performed under isoflurane/O, inhalation anesthesia. Following induction of anesthesia, a 3 centimeter incision is made and the left paraspinal muscles are separated from the spinous process at the L4-S2 levels. The L6 transverse process is carefully removed with a pair of small rongeurs to identify visually the L4-L6 spinal nerves. The left L5 (or L5 and L6) spinal nerve(s) is isolated and tightly ligated with silk thread. A complete hemostasis is confirmed and the wound is sutured using non-absorbable sutures, such as nylon sutures or stainless steel staples. Sham-rats undergo an identical surgical procedure except that the spinal nerve(s) is not manipulated. Following surgery animals are weighed, administered a subcutaneous (SC) injection of saline or ringers lactate, the wound area is dusted with antibiotic powder and they are kept on a warm pad until they recover from the anesthesia. Animals are then returned to their home cages until behavioral testing begins (i.e., 3-4 weeks post-surgery). The animals are assessed for their response to either a noxious or non-noxious stimuli, described below, prior to surgery (baseline), then 1, 3, and 5 hours after being administered a compound of the present disclosure 3 or 4 weeks post-surgery.
Hyperalgesia: The paw pressure assay can be used to assess mechanical hyperalgesia. Sensitivity to noxious mechanical stimuli is measured in animals using the paw pressure test to assess mechanical hyperalgesia. In rats, hind paw withdrawal thresholds (“PWT”), measured in grams, in response to a noxious mechanical stimulus are determined using an analgesymeter (Model 7200, commercially available from Ugo Basile of Italy), as described in C. Stein, “Unilateral Inflammation of the Hindpaw in Rats as a Model of Prolonged Noxious Stimulation: Alterations in Behavior and Nociceptive Thresholds,” Pharmacol. Biochem. and Behavior 31:451-455 (1988). The rat is gently restrained, its hindpaw is placed on a small round platform, and punctate pressure is applied to the dorsal surface of the hindpaw in a graded manner. The maximum weight that is applied to the hind paw is set at 250 grams and the end point is taken as complete withdrawal of the paw. PWT is determined once for each rat at each time point and either only the affected (ipsilateral; same side as the injury) rear paw is tested, or both the ipsilateral and contralateral (non-injured; opposite to the injury) rear paw are tested. Rats are tested prior to surgery or FCA administration to determine a baseline, or normal, PWT. Rats are tested again 3-4 weeks post-surgery or 24 hours post-FCA injection and at different times after (e.g., 1, 3, and 5 hours) compound or vehicle administration. A sham control is also implemented to determine the PWT of a rat having neither surgery nor compound administration.
Representative agonists and partial agonists of the present disclosure are tested in the spinal nerve ligation (“SNL”)-induced mechanical hyperalgesia model in male, Sprague-Dawley rats. Sensitivity to noxious mechanical stimuli is measured in animals using the paw pressure test to assess mechanical hyperalgesia. In rats, hind paw withdrawal thresholds (“PWT”), measured in grams, in response to a noxious mechanical stimulus are determined using an analgesymeter (Model 7200, commercially available from Ugo Basile of Italy), as described in C. Stein, “Unilateral Inflammation of the Hindpaw in Rats as a Model of Prolonged Noxious Stimulation: Alterations in Behavior and Nociceptive Thresholds,” Pharmacol. Biochem. & Behavior 31:451-455 (1988). Briefly, the rat's paw is placed on a small platform, and weight is applied in a graded manner up to a maximum of 250 grams. The endpoint is taken as the weight at which the paw is completely withdrawn. PWT is determined once for each rat at each time point. PWT is measured only in the injured paw. Rats are tested prior to surgery to determine a baseline, or normal, PWT. […]

The test system of data set [3] is 254 bp β-arresting KO rats. In words: SNL-induced mechanical hyperalgesia in 254 bp β-arresting KO rats. Type of data set: in vivo, rat. To be noted: IP dosing, achieved at 1 hour.
In data set [4] the test system is Sprague-Dawley rats. Briefly: Rotarod performance. Type of data set: in vivo, rat. The following applies: IP at 30 mg/kg, 1 hour post dosing. On the procedure: The Rotarod test is used to evaluate motor coordination, strength, and balance. The animals are placed on the rotating rod of the device. The time during which an animal can maintain itself on said bar at an accelerating speed of 5-40 rpm is recorded. 300 seconds is the assay cut-off. Data are analyzed by a two-way ANOVA using a Bonferroni Multiple Comparisons test. […] In the experiment, male, Sprague-Dawley rats, 211-241 g (n=10/group) were tested on an accelerating rotarod (AccuScan; manual 5-40 rpm).

For a further data set, the system named is 1276 bp GRK5 KO rats. In words: SNL-induced mechanical hyperalgesia in 1276 bp GRK5 KO rats. The following applies: IP dosing, achieved at 3 hours. Format: in vivo, rat.

Structures are written as SMILES.

In general, EC50 refers to the concentration giving half of the maximal effect. The Emax is the maximal effect, on the per cent scale that the assay sets.

In the case of `CC(C)n1nc(OCC(F)(F)F)cc1C(=O)Nc1ccc(C2OC3CN[C@H]2C3)cc1` (stereo partly drawn), at hTAAR1, the “hTAAR1 Emax (mean ± SEM (n))” value was 66.6 ± 14.9% (3) and the EC50 turned out to be 519 nM.
On to `CCN(CC1COC(N)=N1)c1ccccc1` (stereo not drawn) [drawing 40], for which, on hTAAR1, the EC50 was 92 ± 10.9 nM and the Emax stood at 81.7 ± 3%.
For the molecule `CN1CC[C@]23c4c5ccc(O)c4O[C@H]2[C@@H](O)C=C[C@H]3[C@H]1C5` [morphine], the “analgesic efficacy in the tail flick assay” value in the data set on Sprague-Dawley rats [1] was “robust analgesic efficacy”.
Turning to `Cc1c(F)cccc1[C@H]1COC(N)=N1`, on hTAAR1, the EC50 was determined as 13.7 ± 5.01 nM and the Emax came out at 68.7 ± 3%.
Take `O=C(Nc1ccc(C2O[C@@H]3CN[C@H]2C3)cc1)c1ccc(Cl)cc1` (stereo partly drawn): at hTAAR1, the “hTAAR1 Emax (mean ± SEM (n))” value is 29.7 ± 14.2% (3) and the EC50 stood at 7210 nM.
In the case of `CCOc1cccc(NC(=O)c2ccc(N3CCCC3)c(C(F)(F)F)c2)c1`, at hTAAR1, the EC50 was above 10000 nM and the Emax came to 6.1 ± 3%.
In the same order, the values of `Clc1ccc(Nc2ccc(C3CNCCO3)nc2)cc1` (stereo not drawn) are 123 ± 9.99 nM and 56.1 ± 7.5%.
Consider `NC1CCc2cc(NC(=O)c3ccnc(C(F)(F)F)c3)ccc2C1` (stereo not drawn), for which, on hTAAR1, the “hTAAR1 Emax (mean ± SEM (n))” value is listed as 85.8 ± 3.0% (2.8) and the concentration giving a half-maximal response (EC50) is 163 nM.
On to `NC1=NC(c2ccc(Cl)c(Cl)c2)CO1` (stereo not drawn) [Compound 3, 4-(3,4-dichlorophenyl)-4,5-dihydrooxazol-2-amine], for which the entries for the “minimum effective dose (MED)” value in the data set with Sprague-Dawley rats [2] (IP dosing) and with Sprague-Dawley rats [2] (PO dosing) were 3 mg/kg and 10 mg/kg, respectively. Also, the “maximum reversal of SNL-induced mechanical hyperalgesia” value (from here on “maximum reversal”) with Sprague-Dawley rats [2] (IP dosing, achieved at 3 hours) is recorded as 56%; in the data set on Sprague-Dawley rats [2] (PO dosing, achieved at 1 hour), 23%.
`NC1=N[C@@H](c2ccc(Cl)c(Cl)c2)CO1`: the Emax at hTAAR1 came out at 35.5 ± 3%.
On to `CCN(CC1COC(N)=N1)c1ccccc1` (stereo not drawn) [Compound 2, 4-((ethyl(phenyl)amino)methyl)-4,5-dihydrooxazol-2-amine], for which the “maximum reversal” value came to 43% in data set [3]; 61% with 1276 bp GRK5 KO rats; 76% in the data set with Sprague-Dawley rats [2] (IP dosing, achieved at 3 hours); 22% in the data set on Sprague-Dawley rats [2] (PO dosing, achieved at 3 hours). The “rotarod performance (motor performance)” value in the data set with Sprague-Dawley rats [4] is recorded as “produced deficits in motor performance”. For the same molecule, the “minimum effective dose (MED)” value with Sprague-Dawley rats [2] (IP dosing) is recorded as below 1 mg/kg; in the data set on Sprague-Dawley rats [2] (PO dosing), 10 mg/kg.
For `NC1=N[C@@H](CCc2ccc(NC(=O)c3ccc(Cl)cc3)cc2)CO1`, on hTAAR1, the EC50 turned out to be 8.53 ± 0.25 nM and the maximum response (Emax) amounted to 42.7 ± 3%.
In the same order, the values of `O=C(Nc1ccc(C2CCNC2)cc1)Nc1ccc(Cl)cn1` (stereo not drawn) are 54.5 ± 18.6 nM and 80.9 ± 3%.
As to `CC(C)N(Cc1c[nH]cn1)c1ccc(Cl)cc1` [Compound 1, N-((1H-imidazol-4-yl)methyl)-4-chloro-N-isopropylaniline], the “maximum reversal” value is recorded as 41% in the data set on Sprague-Dawley rats [2] (IP dosing, achieved at 3 hours) and 69% with Sprague-Dawley rats [2] (PO dosing, achieved at 3 hours). Moreover, the “minimum effective dose (MED)” value in the data set with Sprague-Dawley rats [2] (PO dosing) is below 3 mg/kg.
On to `O=C(Nc1ccc(C2CCNC2)cc1)c1ccc(Cl)cn1` (stereo not drawn), for which, on hTAAR1, the EC50 stood at 475 ± 50.1 nM and the Emax was 73.5 ± 3%.
